Where “and” joins values, the source holds several entries; their conditions need not be identical. Equal entries are not always repeated.
Test system: 317291-083-R-J1-PDC complex spheroids, viability
Assay: Anticancer human tumor 317291-083-R-J1-PDC patient-derived soft tissue sarcoma cell line growth inhibition [GQUAD]
Details: for viability, T/C: stronger effect = lower value; active means viability on the fitted dose curve at most 10% of control; inactive means the rest
From the text: DNA G-quadruplex Stabilizer Agents in Combinations in Complex Spheroids
A high-throughput screen of multi-cell type tumor spheroids was designed to identify active combinations of DNA G-quadruplex stabilizer agents and targeted small molecules. Complex spheroids include a stromal component modeled by human endothelial cells (HUVEC) and fibroblasts modeled by human mesenchymal stem cells (MSCs). The concentration ranges selected for each drug and investigational agent were based upon clinically achievable concentrations if the clinical Cmax of the agent was known.
Compounds. The drugs and investigational agents: pidnarulex (CX-5461; NSC782164), APTO-253 (NSC789042), BRACO-19 (NSC847499), peposertib (NSC802822), ceralasertib (NSC780249), elimusertib (NSC800525), camonsertib (NSC841442), AZD-1390 (NSC803789), olaparib (NSC753686), talazoparib (NSC767125), ART-558 (NSC835418), sotorasib (NSC818433), MRTX-1133 (NSC836407), SN-38 (NSC673596), topotecan (NSC609699), etoposide (NSC141540), doxorubicin (NSC123127), gemcitabine (NSC613327), 5-fluorouracil (NSC19893), paclitaxel (NSC125973), vemurafenib (NSC761431), panobinostat (NSC761190), R-306465 (JNJ-16241199; NSC773264), adavosertib (NSC754352), TP-3654 (NSC805149), carboplatin (NSC241240), KSQ-4279 (NSC840948), and staurosporine (NSC755774) were obtained from the National Cancer Institute (NCI) Developmental Therapeutics Program Chemical Repository (34). The FDA-approved anticancer drug set is available from the NCI Developmental Therapeutics Program. […] The stock solutions were prepared in dimethyl sulfoxide (DMSO, Sigma-Aldrich, St. Louis, MO, cat. D2650) at 800-fold the tested concentration and stored at -70 degrees C prior to their use. All drugs and investigational agents were tested over a range starting from a high concentration at or near the clinical Cmax and decreasing in half-log increments. If the clinical Cmax for an agent had not been determined, the highest concentration tested was 10 microM.
2.3 Cell Culture. All cells were maintained in an incubator at 37 degrees C and 5% CO2 with 95% humidity. The PDC lines were cultured according to standard operating procedures established by the NCI PDMR. All PDCs were thawed and cultured in Matrigel-coated flasks prepared with a working solution of 1X Ham's F-12 nutrient mix, without supplementation (Invitrogen, cat. 11765054), 100 U/mL penicillin-streptomycin (Invitrogen, cat. 15140122), and 2.5% Matrigel (Corning Inc., cat. 354248) for the first three passages. The 857933-349-R-J2-PDC line was cultured in 6C/Colon 1B media, which includes advanced DMEM/F-12 (Thermo Fisher Scientific, cat. 12634028), 10 mM HEPES (Thermo Fisher Scientific, cat. 15630080), 1X GlutaMAX supplement (Thermo Fisher Scientific, cat. 35050061), 0.1 mg/mL primocin (InvivoGen, cat. ant-pm-2), 10% defined fetal bovine serum, heat inactivated (HyClone Laboratories Inc., cat. SH30070.03HI), 50% L-WRN conditioned media (ATCC, cat. CRL-3276), 1.25 mM N-Acetyl-L-cysteine (Sigma-Aldrich, cat. A9165), 10 mM nicotinamide (Sigma-Aldrich, cat. N0636), 1X B-27 supplement (Thermo Fisher Scientific, cat. 17504044), 1X N-2 supplement (Thermo Fisher Scientific, cat. 17502048), 10 microM Y-27632 dihydrochloride (Tocris Bioscience, cat. 1254), and 50 ng/mL human EGF recombinant protein (Thermo Fisher Scientific, cat. PHG0311). The 485176-168-R4-J1-PDC line was cultured in Panc media, which includes all 6C/Colon 1B media components plus 100 ng/mL human FGF-10 (Thermo Fisher Scientific, cat. 100-26), 500 nM SB-431542 (Selleckchem, cat. S1067), and gastrin (Tocris, cat. 3006).
[…]

[1] = curve of first compound, second compound 0.0316 µM
[2] = curve of first compound, second compound 0.1 µM
[3] = curve of first compound, second compound 0.316 µM
[4] = curve of first compound, second compound 1 µM
[5] = curve of first compound, second compound 3.16 µM
[6] = curve of first compound, second compound 10 µM
[7] = second compound 0.0316 µM, first compound 0.0316 µM
[8] = second compound 0.0316 µM, first compound 0.1 µM
[9] = second compound 0.0316 µM, first compound 0.316 µM
[10] = second compound 0.0316 µM, first compound 1 µM
[11] = second compound 0.0316 µM, first compound 3.16 µM
[12] = second compound 0.0316 µM, first compound 10 µM
[13] = second compound 0.1 µM, first compound 0.0316 µM
[14] = second compound 0.1 µM, first compound 0.1 µM
[15] = second compound 0.1 µM, first compound 0.316 µM
[16] = second compound 0.1 µM, first compound 1 µM
[17] = second compound 0.1 µM, first compound 3.16 µM
[18] = second compound 0.1 µM, first compound 10 µM
[19] = second compound 0.316 µM, first compound 0.0316 µM
[20] = second compound 0.316 µM, first compound 0.1 µM
[21] = second compound 0.316 µM, first compound 0.316 µM
[22] = second compound 0.316 µM, first compound 1 µM
[23] = second compound 0.316 µM, first compound 3.16 µM
[24] = second compound 0.316 µM, first compound 10 µM
[25] = second compound 1 µM, first compound 0.0316 µM
[26] = second compound 1 µM, first compound 0.1 µM
[27] = second compound 1 µM, first compound 0.316 µM
[28] = second compound 1 µM, first compound 1 µM
[29] = second compound 1 µM, first compound 3.16 µM
[30] = second compound 1 µM, first compound 10 µM
[31] = second compound 3.16 µM, first compound 0.0316 µM
[32] = second compound 3.16 µM, first compound 0.1 µM
[33] = second compound 3.16 µM, first compound 0.316 µM
[34] = second compound 3.16 µM, first compound 1 µM
[35] = second compound 3.16 µM, first compound 3.16 µM
[36] = second compound 3.16 µM, first compound 10 µM
[37] = second compound 10 µM, first compound 0.0316 µM
[38] = second compound 10 µM, first compound 0.1 µM
[39] = second compound 10 µM, first compound 0.316 µM
[40] = second compound 10 µM, first compound 1 µM
[41] = second compound 10 µM, first compound 3.16 µM
[42] = second compound 10 µM, first compound 10 µM
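Further: spheroids exposed to compounds for one week before readout.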
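Wherever viability, T/C is given: percent viability relative to DMSO vehicle wells taken as 100%.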

CC1COCCN1c1cc(C2(O)CC3CCC(C2)O3)c2cnn(-c3ccn[nH]3)c2n1 (stereo not given) + Cc1[nH]c2ccc(F)cc2c1-c1nc2c3cccnc3c3ncccc3c2[nH]1
33.7 nM: IC50 [6]
39.2 nM: IC50 [3]
71.4 nM: IC50 [1]
inactive: viability, T/C [7] 84.1% | viability, T/C [8] 34.8% | viability, T/C [9] 16% | viability, T/C [10] 22.8% | viability, T/C [11] 13.2% | viability, T/C [12] 3.15% | viability, T/C [13] 68.5% | viability, T/C [14] 29.5% | viability, T/C [15] 13.9% | viability, T/C [19] 55.7% | viability, T/C [20] 27.9% | viability, T/C [21] 14.8% | viability, T/C [22] 20.1% | viability, T/C [23] 12.1% | viability, T/C [25] 66.4% | viability, T/C [26] 26.4% | viability, T/C [27] 18.6% | viability, T/C [28] 10.8% | viability, T/C [31] 69.7% | viability, T/C [32] 20.4% | viability, T/C [33] 10.7% | viability, T/C [37] 52.3% | viability, T/C [38] 18.9% | viability, T/C [39] 14%
54.7 nM: IC50 [2]
51.7 nM: IC50 [4]
active: viability, T/C [16] 12.8% | viability, T/C [17] 10.4% | viability, T/C [18] 3.93% | viability, T/C [24] 3.04% | viability, T/C [29] 11.3% | viability, T/C [30] 2.71% | viability, T/C [34] 14.3% | viability, T/C [35] 7.98% | viability, T/C [36] 2.88% | viability, T/C [40] 13.8% | viability, T/C [41] 10.7% | viability, T/C [42] 3.52%
50.2 nM: IC50 [5]

O=C(c1cc(Cc2n[nH]c(=O)c3ccccc23)ccc1F)N1CCN(C(=O)C2CC2)CC1
> 10000 nM: IC50 (curve of compound)
inactive: viability, T/C (compound 0.0316 µM) 111% and 115% and 109% | viability, T/C (compound 0.1 µM) 96.5% and 83.9% and 97.3% | viability, T/C (compound 0.316 µM) 120% and 96.5% and 93.9% | viability, T/C (compound 1 µM) 88.7% and 107% and 99.4% | viability, T/C (compound 3.16 µM) 87.6% and 84.9% and 93.7% | viability, T/C (compound 10 µM) 71% and 58.2% and 59.2%

CC1COCCN1c1cc(-c2ccnn2C)c2ccnc(-c3ccn[nH]3)c2n1 (stereo not given) + Cc1cnc(CNC(=O)c2c(=O)c3ccc(N4CCCN(C)CC4)nc3n3c2sc2ccccc23)cn1
< 31.6 nM: IC50 [1] | IC50 [3] | IC50 [4] | IC50 [5] | IC50 [6]
39.5 nM: IC50 [2]
inactive: viability, T/C [7] 49.6% | viability, T/C [8] 19.1% | viability, T/C [9] 13% | viability, T/C [10] 10.9% | viability, T/C [11] 23.9% | viability, T/C [12] 12.7% | viability, T/C [13] 59% | viability, T/C [14] 12.5% | viability, T/C [15] 9.96% | viability, T/C [16] 15.6% | viability, T/C [17] 11.6% | viability, T/C [18] 11.4% | viability, T/C [19] 35.6% | viability, T/C [20] 14.6% | viability, T/C [21] 12.3% | viability, T/C [22] 11% | viability, T/C [23] 13.2% | viability, T/C [24] 16.6% | viability, T/C [25] 25.1% | viability, T/C [26] 25.1% | viability, T/C [27] 11.3% | viability, T/C [28] 9.59% | viability, T/C [29] 20.1% | viability, T/C [30] 11.5% | viability, T/C [31] 11.3% | viability, T/C [32] 8.19% | viability, T/C [33] 9.69% | viability, T/C [34] 12.1% | viability, T/C [35] 17.1% | viability, T/C [36] 11.5% | viability, T/C [37] 11.8% | viability, T/C [38] 11.6% | viability, T/C [39] 13.7% | viability, T/C [40] 8.98% | viability, T/C [41] 11.4% | viability, T/C [42] 18.6%

CC(C)(O)C1CCC(Nc2ccc3ncc(-c4cccc(C(F)(F)F)c4)n3n2)CC1 (stereo not given) + Cc1[nH]c2ccc(F)cc2c1-c1nc2c3cccnc3c3ncccc3c2[nH]1
active: viability, T/C [11] 0.62% | viability, T/C [12] 0.37% | viability, T/C [17] 0.16% | viability, T/C [18] 0.74% | viability, T/C [23] 0.22% | viability, T/C [24] 0.17% | viability, T/C [28] 8.74% | viability, T/C [29] 0.32% | viability, T/C [30] 0.16% | viability, T/C [35] 0.94% | viability, T/C [36] 0.2% | viability, T/C [41] 0.55% | viability, T/C [42] 0.82%
inactive: viability, T/C [7] 102% | viability, T/C [8] 102% | viability, T/C [9] 85.9% | viability, T/C [10] 28.2% | viability, T/C [13] 91% | viability, T/C [14] 85% | viability, T/C [15] 77.1% | viability, T/C [16] 25.4% | viability, T/C [19] 61.8% | viability, T/C [20] 70.9% | viability, T/C [21] 61.6% | viability, T/C [22] 14.3% | viability, T/C [25] 58.1% | viability, T/C [26] 43% | viability, T/C [27] 45.1% | viability, T/C [31] 29.5% | viability, T/C [32] 19.8% | viability, T/C [33] 24.1% | viability, T/C [34] 7.5% | viability, T/C [37] 41% | viability, T/C [38] 38.6% | viability, T/C [39] 44.5% | viability, T/C [40] 14.2%
114 nM: IC50 [4]
647 nM: IC50 [1]
421 nM: IC50 [3]
576 nM: IC50 [2]
< 31.6 nM: IC50 [5] | IC50 [6]

CC1COCCN1c1cc(C2(O)CC3CCC(C2)O3)c2cnn(-c3ccn[nH]3)c2n1 (stereo not given)
2.47% and 3.18% and 2.04%: viability, T/C (compound 10 µM)
inactive: viability, T/C (compound 0.0316 µM) 57.9% and 71.5% and 44.9% | viability, T/C (compound 0.1 µM) 37.3% and 29.8% and 26.9% | viability, T/C (compound 0.316 µM) 14.3% and 11.5% and 14.8% | viability, T/C (compound 1 µM) 20.7% and 20.3% and 15.5%
46.9 nM and 56.9 nM and < 31.6 nM: IC50 (curve of compound)
14.6% and 11.3% and 12.4%: viability, T/C (compound 3.16 µM)

— PubChem BioAssay AID2060497 (Molecular Pharmacology Branch, DTP, NCI, 2025)
